Measurements as given in the supplement of paper PMC11061612.

How the values were obtained:
Assay in all cases: combination Emax (second highest fraction inhibited in the dose matrix, 72 h); higher = more inhibition; extreme values may be limits of the assay
[1] = tested on: ECC10 (Gastric Carcinoma)
Summary of the method: (§1)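 Cell lines in DMEM/F12 or RPMI with 10% FBS were plated in 1536-well plates, held 24 hours at 37°C, 5% CO2, then given two-drug dose matrices for 72 hours (DMSO typically 0.2%). Viability was read by CellTiter-Glo 2.0 luminescence and scaled as inhibition from 0 (vehicle wells) to 1 (blank wells). Combination Emax is the second-highest inhibition in the matrix; Bliss excess is observed combination effect minus expected EA + EB − EA·EB, EA and EB being single-agent effects.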

[2] = tested on: A3-KAW (B-Cell Non-Hodgkin's Lymphoma)
Summary of the method: as §1

[3] = tested on: SK-MES-1 (Squamous Cell Lung Carcinoma)
Summary of the method: as §1

[4] = tested on: MDST8 (Colorectal Carcinoma)
Summary of the method: as §1

[5] = tested on: A498 (Kidney Carcinoma)
Summary of the method: as §1

[6] = tested on: 8-MG-BA (Glioblastoma)
Summary of the method: as §1

[7] = tested on: NCI-H2141 (Small Cell Lung Carcinoma)
Summary of the method: as §1

[8] = tested on: KARPAS-422 (B-Cell Non-Hodgkin's Lymphoma)
Summary of the method: as §1

[9] = tested on: TT2609-C02 (Thyroid Gland Carcinoma)
Summary of the method: as §1

[10] = tested on: NCI-H1693 (Lung Adenocarcinoma)
Summary of the method: as §1

[11] = tested on: COR-L311 (Small Cell Lung Carcinoma)
Summary of the method: as §1

[12] = tested on: COLO-320-HSR (Colorectal Carcinoma)
Summary of the method: as §1

[13] = tested on: IGR-37 (Melanoma)
Summary of the method: as §1

[14] = tested on: ARH-77 (Non-Cancerous)
Summary of the method: as §1

[15] = tested on: PANC-10-05 (Pancreatic Carcinoma)
Summary of the method: as §1

[16] = tested on: NCI-H2591 (Mesothelioma)
Summary of the method: as §1

[17] = tested on: BICR22 (Oral Cavity Carcinoma)
Summary of the method: as §1

[18] = tested on: NCI-H64 (Small Cell Lung Carcinoma)
Summary of the method: as §1

[19] = tested on: NCI-H2066 (Squamous Cell Lung Carcinoma)
Summary of the method: as §1

[20] = tested on: Hs-445 (Non-Cancerous)
Summary of the method: as §1

SMILES	combination Emax [1]	combination Emax [2]	combination Emax [3]	combination Emax [4]	combination Emax [5]	combination Emax [6]	combination Emax [7]	combination Emax [8]	combination Emax [9]	combination Emax [10]	combination Emax [11]	combination Emax [12]	combination Emax [13]	combination Emax [14]	combination Emax [15]	combination Emax [16]	combination Emax [17]	combination Emax [18]	combination Emax [19]	combination Emax [20]
Cc1nc(Nc2ncc(C(=O)Nc3c(C)cccc3Cl)s2)cc(N2CCN(CCO)CC2)n1 [Dasatinib] + CC(=O)Nc1cccc(-n2c(=O)n(C3CC3)c(=O)c3c(Nc4ccc(I)cc4F)n(C)c(=O)c(C)c32)c1 [Trametinib] (first compound max 2 µM, 7x7, partner max 1 µM)	0.856	0.464	0.941	0.781	0.503	0.756	0.129	0.469	0.748	0.699	0.0652	0.15	0.838	0.635	0.877	0.527	0.615	0.185	0.402	0.517
CCN(CCO)CCCOc1ccc2c(Nc3cc(CC(=O)Nc4cccc(F)c4)[nH]n3)ncnc2c1 [AZD2811] + C=CCn1c(=O)c2cnc(Nc3ccc(N4CCN(C)CC4)cc3)nc2n1-c1cccc(C(C)(C)O)n1 [AZD1775] (first compound max 1 µM, partner max 1 µM)	0.898	0.902	0.537	0.465	0.458	0.744	0.502	0.569	0.361	0.225	0.592	0.631	0.737	0.95	0.354	0.194	0.468	0.813	0.203	0.882
Cc1cc2ncnn2cc1Nc1ncc2c(n1)n(C1CCOCC1)c(=O)n2C [AZD7648] + CCN(CCO)CCCOc1ccc2c(Nc3cc(CC(=O)Nc4cccc(F)c4)[nH]n3)ncnc2c1 [AZD2811] (first compound max 10 µM, 7x7, partner max 1 µM)	0.908	0.608	0.373	0.485	0.439	0.358	0.358	0.556	0.244	0.263	0.829	0.209	0.285	0.54	0.43	0.37	0.605	0.596	0.356	0.465
CC1(C)CCC(CN2CCN(c3ccc(C(=O)NS(=O)(=O)c4ccc(NCC5CCOCC5)c([N+](=O)[O-])c4)c(Oc4cnc5[nH]ccc5c4)c3)CC2)=C(c2ccc(Cl)cc2)C1 [Venetoclax] + CCN(CCO)CCCOc1ccc2c(Nc3cc(CC(=O)Nc4cccc(F)c4)[nH]n3)ncnc2c1 [AZD2811] (first compound max 1 µM, 7x7, partner max 1 µM)	1	0.286	0.223	0.306	0.216	0.245	0.482	0.922	0.418	0.182	0.927	0.156	0.537	0.703	0.288	0.196	0.492	0.792	0.226	0.68
CC(=O)c1c(C)c2cnc(Nc3ccc(N4CCNCC4)cn3)nc2n(C2CCCC2)c1=O [Palbociclib] + CC1(C)CCC(CN2CCN(c3ccc(C(=O)NS(=O)(=O)c4ccc(NCC5CCOCC5)c([N+](=O)[O-])c4)c(Oc4cnc5[nH]ccc5c4)c3)CC2)=C(c2ccc(Cl)cc2)C1 [Venetoclax] (first compound max 10 µM, 7x7, partner max 1 µM)	0.915	0.826	0.208	0.238	0.318	0.366	0.196	0.964	0.275	0.33	0.632	0.15	0.215	0.725	0.275	0.237	0.209	0.17	0.184	0.746
CN(C)CCCOc1ccc(-c2ccc3ncc4c(c3c2)n(C2CCOCC2)c(=O)n4C)cn1 [AZD0156] + C=CCn1c(=O)c2cnc(Nc3ccc(N4CCN(C)CC4)cc3)nc2n1-c1cccc(C(C)(C)O)n1 [AZD1775] (first compound max 1 µM, partner max 1 µM)	0.783	0.95	0.555	0.416	0.544	0.74	0.558	0.607	0.334	0.179	0.56	0.719	0.706	0.944	0.361	0.191	0.516	0.832	0.208	0.926
COc1nnc2ccc(N3CCC(c4ccc(OCCN5CCN(C)C(=O)[C@H]5C)cc4)CC3)nn12 [AZD5153] + C=CCn1c(=O)c2cnc(Nc3ccc(N4CCN(C)CC4)cc3)nc2n1-c1cccc(C(C)(C)O)n1 [AZD1775] (first compound max 1 µM, partner max 1 µM)	0.901	1	0.743	0.461	0.534	0.801	0.659	0.888	0.622	0.565	0.946	0.661	0.775	0.968	0.597	0.448	0.489	0.884	0.475	0.71
COc1cccc(OCCCN)c1-c1cc(Nc2cnc(C#N)cn2)n[nH]1 [Prexasertib] + CCc1c2c(nc3ccc(O)cc13)-c1cc3c(c(=O)n1C2)COC(=O)[C@]3(O)CC [SN-38] (first compound max 1 µM, 7x7, partner max 0.3 µM)	1	1	0.953	0.94	0.733	0.989	0.881	1	0.95	0.925	1	0.838	0.942	1	0.829	0.791	0.936	0.95	0.5	1
C=CCn1c(=O)c2cnc(Nc3ccc(N4CCN(C)CC4)cc3)nc2n1-c1cccc(C(C)(C)O)n1 [AZD1775] + O=C(c1cc(Cc2n[nH]c(=O)c3ccccc23)ccc1F)N1CCN(C(=O)C2CC2)CC1 [Olaparib] (first compound max 1 µM, partner max 10 µM)	0.796	0.944	0.5	0.408	0.51	0.77	0.528	0.678	0.358	0.288	0.587	0.606	0.776	0.929	0.465	0.253	0.508	0.869	0.377	0.899
Cc1c2c(nn1C)CSCc1cc(n(C)n1)CSc1cc(c3ccccc3c1)OCCCc1c(C(=O)O)n(C)c3c-2c(Cl)ccc13 [AZD5991] + C=CCn1c(=O)c2cnc(Nc3ccc(N4CCN(C)CC4)cc3)nc2n1-c1cccc(C(C)(C)O)n1 [AZD1775] (first compound max 1 µM, partner max 1 µM)	0.858	1	0.593	0.597	0.602	0.906	0.652	0.965	0.617	0.386	0.812	0.801	0.768	0.995	0.573	0.266	0.717	0.933	0.256	1
CC1(C)CCC(CN2CCN(c3ccc(C(=O)NS(=O)(=O)c4ccc(NCC5CCOCC5)c([N+](=O)[O-])c4)c(Oc4cnc5[nH]ccc5c4)c3)CC2)=C(c2ccc(Cl)cc2)C1 [Venetoclax] + CN(C)CCCOc1ccc(-c2ccc3ncc4c(c3c2)n(C2CCOCC2)c(=O)n4C)cn1 [AZD0156] (first compound max 1 µM, 7x7, partner max 1 µM)	0.963	0.288	0.216	0.199	0.263	0.171	0.148	0.873	0.154	0.221	0.604	0.198	0.503	0.297	0.229	0.161	0.337	0.25	0.156	0.221
COc1nnc2ccc(N3CCC(c4ccc(OCCN5CCN(C)C(=O)[C@H]5C)cc4)CC3)nn12 [AZD5153] + C[C@@H]1COCCN1C2=NC(=NC(=C2)C3(CC3)[S@](=N)(=O)C)C4=C5C=CNC5=NC=C4 [AZD6738] (first compound max 1 µM, 7x7, partner max 10 µM)	0.916	1	0.769	0.812	0.65	0.837	0.578	0.887	0.521	0.597	0.95	0.719	0.757	0.991	0.682	0.558	0.709	0.927	0.41	0.727
